This is an account of results in article PMC8097421 (Antimicrobial Agents and Chemotherapy, 2021).

A short description of one data set: clinical. The conditions noted are these: human, in vivo.
Data set [1] is described as follows: in vivo. The conditions noted are these: male, cynomolgus, cynomolgus monkey, po, 30 mg/kg.
The conditions of data set [2]: human, in vivo.
Data set [3] can be described thus: Clinical observation of nonhuman primates in the PK study. Particulars: NHP, oral AT-527 60 mg/kg loading then 30 mg/kg every 12 h. It counts as in vivo, cynomolgus monkey.
Data set [4] is described as follows: Estimated oral bioavailability. Particulars: in vivo, species and source not stated.
On the set-up of data set [5]: method as in doi:10.1016/S0168-8278(20)31210-1. The conditions noted are these: HCV-infected subjects, daily oral 550 mg with daclatasvir for up to 12 weeks; cited from earlier work.
Data set [6] in a line: Steady-state plasma pharmacokinetics in nonhuman primates after oral AT-527. The conditions noted are these: NHP plasma, oral AT-527 60 mg/kg loading then 30 mg/kg every 12 h.
For data set [7], the system named is human bronchial epithelial (HBE) cells. The conditions noted are these: 10 µM.
The test system of another data set is NiRAN domain of nsp12. Also on record: method as in our unpublished data. Particulars: ref our unpublished data; cited from earlier work.
In another data set the test system is Huh-7 cells. Particulars: human, 8 h, 10 µM.
The subject of data set [8] is MRC-5 (human lung fibroblast) cells. Particulars: 8 h, 10 µM.
For data set [9] the following is noted: male, cynomolgus monkey, in vivo.
The nature of data set [10]: in vivo. Particulars: male, cynomolgus monkey; for half-life: po, 30 mg/kg.
The test system of data set [11] is primary human hepatocytes. Particulars: cited from earlier work.
The nature of data set [12]: in vitro. The conditions noted are these: human, intracellular half-life (t1/2) of AT-9010.
A short description of data set [13]: in vitro. The conditions noted are these: human, intracellular half-life (t1/2) of AT-9010. This is another data set of the same source.
A further data set concerns primary NHP hepatocytes. The conditions noted are these: cited from earlier work.
A short description of data set [14]: in vitro. The conditions noted are these: human.
Data set [15] concerns SARS-CoV-2 (USA-WA1/2020). Description: microbe, parasite or virus in culture. It counts as cell-based, SARS-CoV-2 (Betacoronavirus). The conditions noted are these: SARS-CoV-2, HAE cells.
A short description of data set [16]: Cytotoxicity in uninfected BHK-21 cells. In kind it is cell-based. Particulars: hamster, 3-day incubation, read-out: CPE assay CC50. As to the method:
(§1) To assess whether AT-511, a 2′-fluoro-2′-methyl guanosine nucleotide prodrug (Fig. 1), had antiviral activity against a seasonal human alpha coronavirus, HCoV-229E, BHK-21 (baby hamster kidney) cells were acutely infected with the virus and exposed to serial dilutions of the drug. […] Half-maximal cytotoxicity (CC50) measured by neutral red staining of compound-treated cells in the absence of virus indicated little to no toxicity was detected from either drug up to 100 μM.
(§2) AT-511 and sofosbuvir were dissolved in DMSO at 100 mM and then diluted in growth medium to final concentrations of 100, 20, 4, and 0.8 μM (two […] replicate plates each). After BHK-21 cells were grown to confluence in 96-well plates, growth medium was replaced with fresh maintenance medium (growth medium with 1% inactivated FBS in place of 10% FBS) containing serially diluted test compound and HCoV-229E at a multiplicity of infection (MOI) of 0.01. Uninfected cells in the presence of serially diluted compound were used to assess the cytotoxicity of compounds. After a 3-day incubation at 37°C in a humidified 5% CO2 atmosphere, cell viability was determined by the 3-(4,5-dimethyl-2-thiazolyl)-2,5-diphenyl-2H-tetrazolium bromide (MTT) method ([22]). […]

The next data set relates to HCoV-229E. Kind of data set: CPE assay, HCoV-229E in BHK-21 cells. It counts as cell-based, HCoV-229E (Alphacoronavirus). The conditions noted are these: Human coronavirus 229E, 72 h, 3-day incubation, MOI 0.01. How it is done: as §1, §2

Molecules are shown by their SMILES. Marks after values point to notes of the source that are not given here. A value given as a limit tells only on which side of the number the result lay.

What is called clearance is a measure of how efficiently the substance is removed, as volume per time. For orientation: AUC(0-t) means exposure summed from dosing to a finite time, without extrapolation to infinity. A low value points to low exposure. Broadly, the half-life is the time in which the quantity being followed falls by half. As usually defined, the bioavailability is the share of a dose that reaches the circulation, judged against a reference dose that is usually intravenous. For orientation: Tmax means the time from dosing to the highest level. As usually defined, the EC90 is the point of the concentration-response curve where the effect stands at 90%. Broadly, the EC50 is the concentration at which the effect is half-maximal. Read a low EC50 as an effect from little substance.

Consider `C[C@@]1(F)[C@H](O)[C@@H](CO)O[C@H]1n1cnc2c(=O)[nH]c(N)nc21` [AT-273], for which the clearance in “clinical” was 3130 mL/min. In “in vivo [1]”, this compound gave an AUC(0-t) of 1.56 ± 0.18 µM·h and a half-life of 16 h. In data set [2], the “absorption constant (Ka), population estimate” value is given as 0.45 (±0.00253) h^−1; the “volume of central compartment (V1), population estimate” value was 2,070 (±146) liters; the “volume of peripheral compartment (V2), population estimate” value is reported as 1,270 (±164) liters.
Consider `CNc1nc(N)nc2c1ncn2C1OC(COP(=O)(NC(C)C(=O)OC(C)C)Oc2ccccc2)C(O)C1(C)F` (stereo not shown) [AT-527], for which, in [3], the “unusual or adverse clinical signs” value is reported as “no such signs noted”. The bioavailability in [4] was at least 50%. Besides, the safety and tolerability entry in data set [5] was “safe and well tolerated”.
Consider `CNc1nc(N)nc2c1ncn2[C@@H]1O[C@H](CO[P@](=O)(O)N[C@@H](C)C(=O)O)[C@@H](O)[C@@]1(C)F` [AT-551], for which, in the data set “in vivo [1]”, the Tmax lay in the range of 1 to 4 h. Besides, the “AUC0–12” value in data set [6] was found to be 4.35 ± 1.77 µM·h.
Consider `C[C@@]1(F)[C@H](O)[C@@H](COP(=O)(O)OP(=O)(O)OP(=O)(O)O)O[C@H]1n1cnc2c(=O)[nH]c(N)nc21` [AT-9010], for which, in data set [7], the “in vitro t1/2 of the TP, fold longer than in hepatocytes” value is on record as 4. Besides, the “inhibition of NiRAN” value in the data set with NiRAN domain of nsp12 is reported as “potent inhibitor”. The AT-9010 formed with Huh-7 cells is on record as 182 ± 6 pmol/10^6 cells; in data set [8] it was 26.5 ± 0.5 pmol/10^6 cells. The “AT-9010 lung-to-liver concentration ratio” value in data set [9] (12 h) came out at 1.6. Further, in data set [9] (48 h), the “AT-9010 in liver samples at 48-h postdose” value is reported as “no peak corresponding to AT-9010 was detected”. The concentration at 12 h in “in vivo [10]” (AT-9010 concentration in kidney) was 130 ± 40 nM; in “in vivo [10]” (AT-9010 concentration in liver tissue), 90 ± 30 nM; in the data set “in vivo [10]” (AT-9010 concentration in lung tissue) it was 140 ± 110 nM. The results for the half-life in the data set “in vivo [10]” (estimated half-life of AT-9010 in kidney tissue) and in “in vivo [10]” (estimated half-life of AT-9010 in lung tissue) were 8.5 h and 9.4 h, respectively. The “in vitro t1/2 of AT-9010” value (in data set [11]; with primary NHP hepatocytes) was 10 h in each case. In addition, the half-life at 10 µM in “in vitro [12]” and in the data set “in vitro [13]” was 38 to 39 h in each case.
In “in vitro [14]”, `CC(C)C(=O)OC[C@H]1O[C@@H](n2ccc(NO)nc2=O)[C@H](O)[C@@H]1O` [Molnupiravir] returned a CC50 at 5 days above 19 µM. Besides, in data set [15] (CC50/EC90), the “Selectivity index (CC50/EC90)” value was >4.9^c. The EC90 in data set [15] (Severe acute respiratory syndrome coronavirus 2, 120 h, 5-day incubation, read-out: VYR assay EC90) amounted to 2.8 ± 1 µM.
For the compound `CC(C)OC(=O)[C@H](C)N[P@](=O)(OC[C@H]1O[C@@H](n2ccc(=O)[nH]c2=O)[C@](C)(F)[C@@H]1O)Oc1ccccc1` [Sofosbuvir], in data set [16], the CC50 at 3 days was above 100 µM. The compound further displayed a concentration for a half-maximal effect (EC50) with HCoV-229E above 100 µM.
